Results on two compounds are retold here after patent publication US11510943B2, “Chemotherapeutic agent comprising combination of alexidine dihydrochloride and sodium pentaborate pentahydrate” (YEDITEPE UNIVERSITESI, priority 2018, dated 2022).

Entries after “also recorded” stand apart in the source; their conditions may differ. Where a name gives a salt, the structure may show the parent alone.

Series [1] concerns pancreatic cancer cell (Psn-1). The experiment in a line: colorimetric tetrazolium salt (MTS) viability assay, Psn-1. From the text: (§1) This value is 10-20% more than the chemotherapeutic effect of alexidine dihydrochloride alone.
Series [2] deals with healthy intervertebral disc cell (HNPC). The experiment in a line: colorimetric tetrazolium salt (MTS) viability assay, HNPC. It counts as cell-based. As to conditions: AD alone, 2.5 μM, 48 hours of incubation.
In series [3] the test system is healthy cells (hTert-HPNE, HNPC, hFSSCs, HUVEC). The experiment in a line: toxicity analysis (MTS viability assay), healthy cells together. The format is cell-based. On the technique in general: Formazan colour is commonly taken as a measure of viable cells.
For series [4], the system named is pancreatic cancer cell (AsPc-1). The experiment in a line: colorimetric tetrazolium salt (MTS) viability assay, AsPc-1.
Description: as §1

Series [5] deals with pancreatic cancer cells (MIA PaCa-2, AsPc-1 and Psn-1). The experiment in a line: colorimetric tetrazolium salt (MTS) viability assay, pancreatic cancer cells together. The note with it: Pancreatic cancer cell, 48 h, read-out: viability of the pancreatic cancer cells.
Description: as §1

Series [6] is described as follows: solubility in dimethylsulfoxide. The format is physicochemical. The note with it: organic solvent or mixture. As to the method:
The chemotherapeutic agent of the present invention comprises a combination of alexidine dihydrochloride and sodium pentaborate pentahydrate and induces apoptosis on pancreatic cancer cells. Alexidine dihydrochloride is a compound having a molecular weight of 581.71 gram/mol and the chemical formula of C26H56N10 ·2HCl and it is dissolved in dimethylsulfoxide of 10 mg/ml or above.

Series [7] deals with pancreatic cancer cell (MIA PaCa-2). The experiment in a line: colorimetric tetrazolium salt (MTS) viability assay, MIA PaCa-2. As to conditions: Homo sapiens, MIA PaCa-2, 48 h, read-out: viability of MIA PaCa-2 cells.
Description: as §1

For series [8], the system named is healthy human pancreatic cell (hTert-HPNE). The experiment in a line: colorimetric tetrazolium salt (MTS) viability assay, hTert-HPNE. The format is cell-based. As to conditions: AD alone, 2.5 μM, 48 hours of incubation.
How the values of series [9] were obtained: The sodium pentaborate pentahydrate compound was dissolved in the appropriate medium for the cell that was used and filtered to enable sterilization.
[10] abbreviates: AD alone 2.5 μM, 48-hour incubation, dihydrochloride.

Consider `CCCCC(CC)CNC(=N)NC(=N)NCCCCCCNC(=N)NC(=N)NCC(CC)CCCC` (stereo not shown) [AD, alexidine dihydrochloride], for which the “viability of Psn-1 cells” value in [1] (setting [10]) was determined as 51.6%. Besides, the viability (in general, a read-out of living cells in per cent, often relative to untreated cells) at 2.5 µM in series [1] (Homo sapiens, PSN1, 48 h, read-out: viability of Psn-1 cells, AD alone 2.5 μM, 48-hour incubation) was determined as 45%; in [4] (Homo sapiens, ASPC1, 48 h, read-out: viability of AsPc-1 cells, AD alone 2.5 μM, 48-hour incubation) it was 58%; in series [5] it was 50%; in series [7], 53%. For the same compound, in series [2], the “effect on healthy intervertebral disc cells (HNPC)” value is on record as “not affected”. Besides, the “effect on healthy cells” value in series [3] (AD alone 2.5 μM, 48-hour incubation, hTert-HPNE and HNPC, dihydrochloride) is “did not harm the healthy cells; also recorded: do not kill the healthy cells”. Besides, in series [4] (setting [10]), the “viability of AsPc-1 cells” value amounted to 58.3%. Further, the solubility – broadly, the concentration that dissolves in the medium under given conditions – in [6] is not below 10000 µg/mL. Further, the “effect on healthy pancreas cell (hTert-HPNE)” value in series [8] is “not affected”.
For sodium pentaborate pentahydrate [NAB], the “dissolution in the medium” value in [9] (concentrations used (100-1000 μM), no additional solvent) is “dissolved instantly”. For the same compound, the “precipitate formation in the medium” value in series [9] (medium pH 7.4, 72 hours) is “did not form sodium pentaborate pentahydrate precipitate”. For the same compound, the average vitality in series [3] (NAB alone 1000 μM, incubated for 48 hours, hTert-HPNE, HNPC, hFSSCs, HUVEC) was 70%.
